Experimental data reported in PubChem BioAssay AID1919001 (Molecular Pharmacology Branch, DTP, NCI, 2023).

Test system: 699152-130-R-J1-PDC complex spheroid growth
Assay: Anticancer human tumor 699152-130-R-J1-PDC patient-derived pancreatic carcinoma cell line growth inhibition [AhR]
Settings: for IC50: curve of first compound; for viability, T/C: stronger effect = lower value
Excerpt: Multicellular complex tumor spheroid response to aryl hydrocarbon receptor antagonists in combination with a variety of drugs and investigational agents in selected tumor cell lines
The current study was undertaken to assess response to aryl hydrocarbon receptor antagonists in combination with standard-of-care drugs and investigational agents in solid tumor complex spheroid models. Complex spheroids include a stromal component modeled by human endothelial cells (HUVEC) and fibroblasts modeled by human mesenchymal stem cells (MSCs). The concentration ranges selected for each drug and investigational agent were based upon clinically achievable concentrations if the clinical Cmax of the agent was known.
Compounds. The drugs and investigational agents: BAY 2416964 (NSC825713), GNF351 (NSC835774), CH-223191 (NSC835775), CPI-455 (NSC825282), aza-TdCyd (NSC777586), decitabine (NSC127716), belinostat (NSC758774), entinostat (NSC756642), pevonedistat (NSC761192), tazemetostat (NSC777109), talazoparib (NSC765396), olaparib (NSC753686), selinexor (NSC780203), nedisertib (M3814, NSC802822), bortezomib (NSC756655), venetoclax (NSC766270), doxorubicin (NSC123127), elimusertib (BAY189344, NSC800525), ceralasertib (AZD6738, NSC777638), TAK-243 (NSC785004), alisertib (NSC759677), etoposide (NSC141540), topotecan (NSC609699), eribulin (NSC707389), gemcitabine (NSC613327), carboplatin (NSC241240), cisplatin (NSC119875), and SN-38 (NSC673596) were obtained from the National Cancer Institute (NCI) Developmental Therapeutics Program Chemical Repository (32). The FDA-approved anticancer drug set is available from the Developmental Therapeutics Program at https://dtp.cancer.gov/organization/dscb/obtaining/available plates.htm. […] The stock solutions were prepared in dimethyl sulfoxide (DMSO, Sigma-Aldrich, St. Louis, MO, cat. D2650), except for the platinum compounds which were prepared in saline (Quality Biological, Gaithersburg, MD, cat. 114-055-101), at 800-fold the tested concentration and stored at -70 degrees C prior to their use. All drugs and investigational agents were tested over a range starting from a high concentration at or near the clinical Cmax and decreasing in half-log increments. If the clinical Cmax for an agent had not been determined, the highest concentration tested was 10 microM (Table 1).
Cell Culture. All cells were maintained in an incubator at 37 degrees C and 5% CO2 with 95% humidity. The PDC lines were cultured according to standard operating procedures established by the NCI PDMR (https://pdmr.cancer.gov). Briefly, all PDCs were thawed and cultured in Matrigel-coated flasks prepared with a working solution of 1X Ham's F-12 nutrient mix, without supplementation (Invitrogen, Waltham, MA, cat. 11765054), 100 U/mL penicillin-streptomycin (Invitrogen, cat. 15140122), and 2.5% Matrigel (Corning Inc., Corning, NY, cat. 354248) for the first three passages. All PDCs were cultured in complete DMEM/F-12 media containing advanced DMEM/F-12 (Invitrogen, cat. 12634028), 4.9% defined fetal bovine serum, heat inactivated (HyClone Laboratories Inc., Logan, UT, cat. SH30070.03HI), 389 ng/mL hydrocortisone (Sigma-Aldrich, cat. H4001), 9.7 ng/mL human EGF recombinant protein (Invitrogen, cat. PHG0313), 23.4 microg/mL adenine (Sigma-Aldrich, cat. A2786), 97.3 U/mL penicillin-streptomycin (Invitrogen, cat. 15140122), 1.9 mM L-glutamine (Invitrogen, cat. 25030081), and 9.7 microM Y-27632 dihydrochloride (Tocris Bioscience, Bristol, United Kingdom, cat. 1254). The PDCs were cultured in complete DMEM/F12 media without 10 microM Y-27632 dihydrochloride for at least two passages prior to the screen. The established cell lines NCI-H1341 and […] were cultured in DMEM/F-12, HEPES (Invitrogen, cat. 11330032), 5% defined fetal bovine serum (HyClone Laboratories Inc., cat. SH30070.03), ITS premix universal culture supplement [insulin (5 microg/mL), transferrin (5 microg/mL), and selenious acid (5 ng/mL)] […]

[1] = second compound 0.1 µM, first compound 0.00316 µM
[2] = second compound 0.1 µM, first compound 0.01 µM
[3] = second compound 0.1 µM, first compound 0.0316 µM
[4] = second compound 0.1 µM, first compound 0.1 µM
[5] = second compound 0.316 µM, first compound 0.00316 µM
[6] = second compound 0.316 µM, first compound 0.01 µM
[7] = second compound 0.316 µM, first compound 0.0316 µM
[8] = second compound 0.316 µM, first compound 0.1 µM
[9] = second compound 1 µM, first compound 0.00316 µM
[10] = second compound 1 µM, first compound 0.01 µM
[11] = second compound 1 µM, first compound 0.0316 µM
[12] = second compound 1 µM, first compound 0.1 µM
[13] = second compound 3.16 µM, first compound 0.00316 µM
[14] = second compound 3.16 µM, first compound 0.01 µM
[15] = second compound 3.16 µM, first compound 0.0316 µM
[16] = second compound 3.16 µM, first compound 0.1 µM
[17] = second compound 10 µM, first compound 0.00316 µM
[18] = second compound 10 µM, first compound 0.01 µM
[19] = second compound 10 µM, first compound 0.0316 µM
[20] = second compound 10 µM, first compound 0.1 µM
[21] = second compound 0.1 µM, first compound 0.316 µM
[22] = second compound 0.1 µM, first compound 1 µM
[23] = second compound 0.1 µM, first compound 3.16 µM
[24] = second compound 0.1 µM, first compound 10 µM
[25] = second compound 0.316 µM, first compound 0.316 µM
[26] = second compound 0.316 µM, first compound 1 µM
[27] = second compound 0.316 µM, first compound 3.16 µM
[28] = second compound 0.316 µM, first compound 10 µM
[29] = second compound 1 µM, first compound 0.316 µM
[30] = second compound 1 µM, first compound 1 µM
[31] = second compound 1 µM, first compound 3.16 µM
[32] = second compound 1 µM, first compound 10 µM
[33] = second compound 3.16 µM, first compound 0.316 µM
[34] = second compound 3.16 µM, first compound 1 µM
[35] = second compound 3.16 µM, first compound 3.16 µM
[36] = second compound 3.16 µM, first compound 10 µM
[37] = second compound 10 µM, first compound 0.316 µM
[38] = second compound 10 µM, first compound 1 µM
[39] = second compound 10 µM, first compound 3.16 µM
[40] = second compound 10 µM, first compound 10 µM
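Further: compound exposure lasted 7 days after spheroids had grown for 3 days.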

Row | IC50 (second compound 0.1 µM) [nM] | IC50 (second compound 0.316 µM) [nM] | IC50 (second compound 1 µM) [nM] | IC50 (second compound 3.16 µM) [nM] | IC50 (second compound 10 µM) [nM] | SMILES | viability, T/C [3] [%] | viability, T/C [4] [%] | viability, T/C [7] [%] | viability, T/C [8] [%] | viability, T/C [11] [%] | viability, T/C [12] [%] | viability, T/C [15] [%] | viability, T/C [16] [%] | viability, T/C [19] [%] | viability, T/C [20] [%] | viability, T/C [21] [%] | viability, T/C [22] [%] | viability, T/C [25] [%] | viability, T/C [26] [%] | viability, T/C [29] [%] | further results
1 | > 100 | > 100 | > 100 | > 100 | > 100 | CC[C@@]1(O)C(=O)OCc2c1cc1n(c2=O)Cc2cc3c(CN(C)C)c(O)ccc3nc2-1 + CC(CO)NC(=O)c1cc(-c2ccc(Cl)cc2)nn(-c2cnn(C)c2)c1=O | 86.7 | 64.7 | 76.3 | 60.3 | 83.6 | 62.5 | 71.8 | 60.7 | 72.3 | 57 | – | – | – | – | – | viability, T/C (second compound 0.1 µM, first compound 0.000316 µM): 101%; viability, T/C (second compound 0.1 µM, first compound 0.001 µM): 102%; viability, T/C [1]: 112%; viability, T/C [2]: 98.6%; viability, T/C (second compound 0.316 µM, first compound 0.000316 µM): 94.1%; viability, T/C (second compound 0.316 µM, first compound 0.001 µM): 107%; viability, T/C [5]: 93%; viability, T/C [6]: 83.5%; viability, T/C (second compound 1 µM, first compound 0.000316 µM): 96.8%; viability, T/C (second compound 1 µM, first compound 0.001 µM): 108%; viability, T/C [9]: 92.5%; viability, T/C [10]: 79.4%; viability, T/C (second compound 3.16 µM, first compound 0.000316 µM): 89.4%; viability, T/C (second compound 3.16 µM, first compound 0.001 µM): 102%; viability, T/C [13]: 93.7%; viability, T/C [14]: 84%; viability, T/C (second compound 10 µM, first compound 0.000316 µM): 102%; viability, T/C (second compound 10 µM, first compound 0.001 µM): 103%; viability, T/C [17]: 86.3%; viability, T/C [18]: 80.7%
2 | 9980 | 8520 | > 10000 | 6670 | 7750 | COc1cc(C2c3cc4c(cc3C(OC3OC5COC(C)OC5C(O)C3O)C3COC(=O)C23)OCO4)cc(OC)c1O (stereo not given) + CC(CO)NC(=O)c1cc(-c2ccc(Cl)cc2)nn(-c2cnn(C)c2)c1=O | 101 | 98.3 | 93.7 | 93.7 | 95.1 | 92.3 | 82.4 | 86 | 77.6 | 82.9 | 87.8 | 69.4 | 74 | 61.2 | 82.2 | viability, T/C [23]: 61.9%; viability, T/C [24]: 48.6%; viability, T/C [27]: 54.8%; viability, T/C [28]: 47.5%; viability, T/C [30]: 73.3%; viability, T/C [31]: 53.2%; viability, T/C [32]: 53.9%; viability, T/C [33]: 69.5%; viability, T/C [34]: 65.5%; viability, T/C [35]: 59.1%; viability, T/C [36]: 45.5%; viability, T/C [37]: 79.7%; viability, T/C [38]: 57%; viability, T/C [39]: 57.1%; viability, T/C [40]: 43.3%
3 | 453 | 378 | 462 | 370 | 325 | COc1cccc2c1C(=O)c1c(O)c3c(c(O)c1C2=O)CC(O)(C(=O)CO)CC3OC1CC(N)C(O)C(C)O1 (stereo not given) + CC(CO)NC(=O)c1cc(-c2ccc(Cl)cc2)nn(-c2cnn(C)c2)c1=O | 71.2 | 86.7 | 83.2 | 74.2 | 70.4 | 72.7 | 68.1 | 69.9 | 73.4 | 69.3 | 56.8 | 29.1 | 56 | 21.6 | 64.1 | viability, T/C [23]: 1.94%; viability, T/C [24]: 11.6%; viability, T/C [27]: 2.1%; viability, T/C [28]: 11.6%; viability, T/C [30]: 20.7%; viability, T/C [31]: 2.66%; viability, T/C [32]: 12.9%; viability, T/C [33]: 56.2%; viability, T/C [34]: 9.03%; viability, T/C [35]: 8.71%; viability, T/C [36]: 15.1%; viability, T/C [37]: 51.1%; viability, T/C [38]: 2.91%; viability, T/C [39]: 5.62%; viability, T/C [40]: 12.8%
4 | > 1000 | > 1000 | > 1000 | > 1000 | > 1000 | Nc1ncn(C2CC(O)C(CO)O2)c(=O)n1 (stereo not given) + CC(CO)NC(=O)c1cc(-c2ccc(Cl)cc2)nn(-c2cnn(C)c2)c1=O | 97 | 102 | 86.7 | 87.2 | 107 | 87.7 | 82.2 | 82.1 | 79.9 | 70 | 96.9 | 93.3 | 87.8 | 72.2 | 77.7 | viability, T/C [1]: 90.2%; viability, T/C [2]: 100%; viability, T/C [5]: 89.5%; viability, T/C [6]: 100%; viability, T/C [9]: 112%; viability, T/C [10]: 103%; viability, T/C [30]: 82.3%; viability, T/C [13]: 75.4%; viability, T/C [14]: 87.6%; viability, T/C [33]: 81%; viability, T/C [34]: 70%; viability, T/C [17]: 85.8%; viability, T/C [18]: 85.3%; viability, T/C [37]: 66.6%; viability, T/C [38]: 77.1%
